In US8815260B1, “Treatment of restenosis and stenosis with dasatinib” (University of South Florida, priority 2005, dated 2014):
Like-named read-outs stand apart in the source and are kept apart here. One block for each molecule: values may come before it.

Columns and labels:
porcine SMC = conditions: Banai et al., 1998; cited from earlier work
PDGFRβ = PDGFRβ (Rattus norvegicus, UniProt Q05030); conditions: A10 cells
[1] = cited from earlier work
IGF-1R = IGF-1R (Rattus norvegicus, UniProt P24062); conditions: A10 cells, up to 50 nM, IGF-1 10 ng/ml 10 min
Chain of IGF-1R (P24062 31-1370): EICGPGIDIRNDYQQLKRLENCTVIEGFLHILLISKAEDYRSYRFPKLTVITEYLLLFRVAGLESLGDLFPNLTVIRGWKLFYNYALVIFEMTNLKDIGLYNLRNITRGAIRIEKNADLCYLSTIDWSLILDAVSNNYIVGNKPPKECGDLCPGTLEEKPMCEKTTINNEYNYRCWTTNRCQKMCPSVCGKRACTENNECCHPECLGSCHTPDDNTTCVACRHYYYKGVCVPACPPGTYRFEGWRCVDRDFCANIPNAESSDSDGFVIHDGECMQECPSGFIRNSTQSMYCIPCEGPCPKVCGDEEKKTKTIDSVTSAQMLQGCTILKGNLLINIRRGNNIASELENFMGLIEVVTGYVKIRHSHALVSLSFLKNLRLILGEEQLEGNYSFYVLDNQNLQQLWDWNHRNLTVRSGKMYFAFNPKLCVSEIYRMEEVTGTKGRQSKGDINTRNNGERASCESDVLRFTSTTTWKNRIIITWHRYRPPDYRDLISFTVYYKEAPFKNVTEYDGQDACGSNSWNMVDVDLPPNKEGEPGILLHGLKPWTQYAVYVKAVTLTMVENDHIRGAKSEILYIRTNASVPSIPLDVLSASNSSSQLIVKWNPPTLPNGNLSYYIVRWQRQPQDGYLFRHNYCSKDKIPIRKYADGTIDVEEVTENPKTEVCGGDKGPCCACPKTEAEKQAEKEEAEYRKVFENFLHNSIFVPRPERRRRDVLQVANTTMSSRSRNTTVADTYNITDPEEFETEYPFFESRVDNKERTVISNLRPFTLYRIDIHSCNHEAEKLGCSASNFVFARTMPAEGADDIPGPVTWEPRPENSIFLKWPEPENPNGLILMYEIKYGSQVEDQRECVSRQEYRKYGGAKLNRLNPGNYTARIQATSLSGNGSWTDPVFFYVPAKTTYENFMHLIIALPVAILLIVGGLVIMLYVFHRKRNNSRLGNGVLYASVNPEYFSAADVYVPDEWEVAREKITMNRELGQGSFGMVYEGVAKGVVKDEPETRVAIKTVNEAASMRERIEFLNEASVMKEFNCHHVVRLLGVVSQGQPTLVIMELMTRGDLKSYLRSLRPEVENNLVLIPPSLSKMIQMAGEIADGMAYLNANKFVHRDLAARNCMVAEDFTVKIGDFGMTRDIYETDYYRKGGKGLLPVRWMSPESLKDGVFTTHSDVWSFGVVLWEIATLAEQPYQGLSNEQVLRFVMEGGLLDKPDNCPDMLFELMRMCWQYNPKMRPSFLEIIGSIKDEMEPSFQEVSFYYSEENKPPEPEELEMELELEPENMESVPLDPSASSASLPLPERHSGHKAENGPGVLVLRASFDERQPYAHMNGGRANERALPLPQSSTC

A10 cells = test: Flow cytometric analysis of cell cycle phase distribution, PDGF-treated A10 cells; type: cell-based, rat; conditions: PDGF 10 ng/ml plus 50 nM
STAT3, Akt, Erk2 [2] = test: PDGF-stimulated activation of STAT3, Akt and Erk2 in A10 cells (immunoblotting); type: cell-based, rat
STAT3, Akt, Erk2 [3] = test: PDGF-stimulated activation of STAT3, Akt and Erk2 in primary human AoSMCs; type: cell-based; conditions: 0-50 nM, not reduced below basal activation state
PDGFR = conditions: Buchdunger et al., 1996; Sanz-Gonzalez et al., 2004; cited from earlier work

Chain of PDGFRβ (Q05030 32-1097): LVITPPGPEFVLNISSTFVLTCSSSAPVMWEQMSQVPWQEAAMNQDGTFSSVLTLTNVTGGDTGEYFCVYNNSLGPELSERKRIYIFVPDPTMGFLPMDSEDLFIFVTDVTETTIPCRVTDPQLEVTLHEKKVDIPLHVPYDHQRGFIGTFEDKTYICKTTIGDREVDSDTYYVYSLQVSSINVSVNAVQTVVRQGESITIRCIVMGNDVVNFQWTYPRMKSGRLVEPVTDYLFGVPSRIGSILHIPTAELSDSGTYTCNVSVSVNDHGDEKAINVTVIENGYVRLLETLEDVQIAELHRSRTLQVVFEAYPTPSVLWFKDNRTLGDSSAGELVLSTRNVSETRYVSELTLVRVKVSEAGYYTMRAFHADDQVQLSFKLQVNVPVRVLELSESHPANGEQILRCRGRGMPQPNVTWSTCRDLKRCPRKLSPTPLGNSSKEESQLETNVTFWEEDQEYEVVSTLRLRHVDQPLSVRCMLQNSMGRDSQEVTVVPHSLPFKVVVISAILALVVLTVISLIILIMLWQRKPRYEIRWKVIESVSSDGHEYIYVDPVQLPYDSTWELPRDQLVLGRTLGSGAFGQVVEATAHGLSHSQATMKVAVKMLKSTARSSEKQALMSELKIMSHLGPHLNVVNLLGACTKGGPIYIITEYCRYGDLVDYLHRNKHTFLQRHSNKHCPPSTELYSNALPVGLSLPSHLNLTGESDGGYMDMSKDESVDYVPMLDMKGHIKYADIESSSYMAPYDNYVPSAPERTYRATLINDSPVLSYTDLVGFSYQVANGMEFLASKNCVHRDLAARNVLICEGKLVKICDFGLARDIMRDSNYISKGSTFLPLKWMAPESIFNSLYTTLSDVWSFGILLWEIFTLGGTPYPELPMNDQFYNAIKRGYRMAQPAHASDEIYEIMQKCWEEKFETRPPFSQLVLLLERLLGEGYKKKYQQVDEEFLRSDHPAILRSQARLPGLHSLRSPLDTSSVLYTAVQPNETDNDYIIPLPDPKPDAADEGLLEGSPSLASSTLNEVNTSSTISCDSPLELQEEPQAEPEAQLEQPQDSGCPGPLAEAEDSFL

SMILES: Cc1cc2ncc(-c3ccccc3)nc2cc1C [AG-1295]
inhibition of porcine SMC proliferation, nature of the effect (porcine SMC): reversible and not toxic

PDGF-stimulated PDGFRβ tyrosine phosphorylation (PDGFRβ; 50 nM, PDGF-BB 5 ng/ml, all time points (0-30 min)): effectively blocked
inhibition of IGF-1R tyrosine phosphorylation (IGF-1R): No detectable inhibition
SMILES: Cc1nc(Nc2ncc(C(=O)Nc3c(C)cccc3Cl)s2)cc(N2CCN(CCO)CC2)n1 [BMS-354825, N-(2-chloro-6-methylphenyl)-2-[[6-[4-[(2-hydroxyethyl)-1-piperazinyl]-2-methyl-4-pyrimidinyl]amino]-5-thiazolecarboxamide, monohydrate]
Cmax ([1]; BMS-354825 dosing for CML, oral, read-out: Cmax): 60 to 120 nM
Cmax ([1]; oral delivery route, 140 mg/day): 30 to 60 ng/mL
percentage of cells in G2 phase (A10 cells; 16 h (PDGF alone 10.74%, no PDGF 0.99%)): 3.75%
percentage of cells in S phase (A10 cells; 16 h (PDGF alone 23.83%, no PDGF 10.4%)): 7.99%
percentage of cells in G1 phase (A10 cells; 16 h (PDGF alone 65.44%, no PDGF 88.65%)): 88.29%
PDGF-stimulated activation of STAT3, Akt and Erk2 (activation-specific phosphorylation) (STAT3, Akt, Erk2 [2]; 50 nM, PDGF-BB 5 ng/ml): inhibited
PDGF-induced further activation of STAT3 (STAT3, Akt, Erk2 [3]): blocked

concentration required for the same level (complete block) of PDGFR inhibition (PDGFRβ; parallel experiments, PDGF-BB 5 ng/ml 5 min): 5 µM
SMILES: Cc1ccc(NC(=O)c2ccc(CN3CCN(C)CC3)cc2)cc1Nc1nccc(-c2cccnc2)n1 [imatinib]
concentrations required for inhibition of PDGFR in cell-based assays (PDGFR): micromolar concentrations
concentration giving complete inhibition of PDGF-stimulated Akt and Erk2 activation (STAT3, Akt, Erk2 [2]; PDGF-BB 5 ng/ml 5 min): 5 µM
decrease in STAT3 tyrosine phosphorylation (STAT3, Akt, Erk2 [2]; PDGF-BB 5 ng/ml 5 min, relative to the 5 μM needed for Akt and Erk2): appeared at lower concentrations
